Experiments:
BCL2 WT = BCL2 WT (Homo sapiens (Human), UniProt P10415); experiment: TR-FRET competitive binding assay, BCL2 WT; conditions: Ki determined from IC50, read-out: TR_FRET EKI_Bcl2 WT
How it was run: (§1)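 Competitive TR-FRET displacement of fluorescein-PUMA peptide (2 or 20 nM) from 0.5 nM terbium-labelled N-terminal Halo-fusion BCL2 (1-207, wild type or mutant) or BCLXL (2-196), expressed in E. coli. Buffer 50 mM Hepes pH 7.5, 150 mM NaCl, 5% DMSO; 2 h at 23°C. 520/495 nm ratio fitted over 11 points for IC50, converted to Ki.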

BCL2 G101V [1] = target: BCL2 G101V (Homo sapiens, UniProt P10415, G101V); experiment: TR-FRET competitive binding assay, BCL2 G101V; conditions: BCL2 G101V; Ki determined from IC50; read-out: TR_FRET EKI_Bcl2 G101V
How it was run: as §1

BCL2 G101V [2] = experiment: TR-FRET competitive binding assay, BCL2 G101V; parameters: species or system human; conditions: ratio Ki BCL2 G101V / Ki BCL2 WT
How it was run: as §1

BCL2 D103Y = BCL2 D103Y (Homo sapiens, UniProt P10415, D103Y); experiment: TR-FRET competitive binding assay, BCL2 D103Y; conditions: Ki determined from IC50, read-out: TR_FRET EKI_Bcl2 D103Y
How it was run: as §1

BCL2 F104I = BCL2 F104I (Homo sapiens, UniProt P10415, F104I); experiment: TR-FRET competitive binding assay, BCL2 F104I; conditions: Ki determined from IC50, read-out: TR_FRET EKI_Bcl2 F104I
How it was run: as §1

BCL2 D111A = BCL2 D111A (Homo sapiens, UniProt P10415, D111A); experiment: TR-FRET competitive binding assay, BCL2 D111A; conditions: Ki determined from IC50, read-out: TR_FRET EKI_Bcl2 D111A
How it was run: as §1

BCLXL WT = BCLXL WT (Homo sapiens (Human), UniProt Q07817); experiment: TR-FRET competitive binding assay, BCLXL WT; conditions: for Ki: BCLXL WT, Ki determined from IC50, read-out: TR_FRET EKI BclxL; for TR_FRET EKI BCLxL/WT selectivty ratio: ratio Ki BCLxL / Ki BCL2 WT
BCLXL WT, sequence (Q07817 other isoform, or with tags, fused parts or gaps): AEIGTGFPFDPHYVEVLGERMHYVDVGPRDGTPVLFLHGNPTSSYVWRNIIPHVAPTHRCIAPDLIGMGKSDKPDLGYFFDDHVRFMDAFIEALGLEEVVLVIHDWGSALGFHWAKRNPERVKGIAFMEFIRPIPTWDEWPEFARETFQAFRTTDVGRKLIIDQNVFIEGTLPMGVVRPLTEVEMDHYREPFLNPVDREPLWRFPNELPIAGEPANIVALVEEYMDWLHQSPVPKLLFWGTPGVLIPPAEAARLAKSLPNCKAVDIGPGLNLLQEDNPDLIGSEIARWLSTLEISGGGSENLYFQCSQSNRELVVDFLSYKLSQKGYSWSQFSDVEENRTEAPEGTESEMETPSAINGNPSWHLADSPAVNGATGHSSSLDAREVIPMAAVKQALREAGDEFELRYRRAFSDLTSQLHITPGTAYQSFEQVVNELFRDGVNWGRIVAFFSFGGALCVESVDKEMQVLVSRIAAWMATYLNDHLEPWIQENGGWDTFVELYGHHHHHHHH
How it was run: as §1

KMS-12-PE Bcl-2 WT = experiment: In vitro cytotoxicity CellTiter-Glo 48 h, KMS-12-PE Bcl-2 WT; type: cell-based; conditions: C50 = concentration needed to reach 50% of the cellular viability
How it was run: (§2)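 Potency is expressed as C50, the compound concentration at which viability of engineered KMS-12-PE cells (Bcl-2 wild type or G101V) falls to 50%, determined from CellTiter-Glo luminescence after 48 h of treatment over 11 concentrations.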

KMS-12-PE Bcl-2 G101V = experiment: In vitro cytotoxicity CellTiter-Glo 48 h, KMS-12-PE Bcl-2 G101V; type: cell-based; conditions: for Ratio (G101V/WT): C50 KMS-12-PE Bcl-2 G101V over C50 KMS-12-PE Bcl-2 WT; for IC50: Homo sapiens, KMS-12-PE, 48 h, CellTiter-Glo, C50 = concentration needed to reach 50% of the cellular viability
How it was run: as §2

Compound | Ki (BCL2 WT) [nM] | Ki (BCL2 G101V [1]) [nM] | TR_FRET EKI G101V/WT selectivty ratio (BCL2 G101V [2]) | Ki (BCL2 D103Y) [nM] | Ki (BCL2 F104I) [nM] | Ki (BCL2 D111A) [nM] | Ki (BCLXL WT) [nM] | TR_FRET EKI BCLxL/WT selectivty ratio (BCLXL WT) | IC50 (KMS-12-PE Bcl-2 WT; Homo sapiens, KMS-12-PE) [µM] | Ratio (G101V/WT) (KMS-12-PE Bcl-2 G101V) | IC50 (KMS-12-PE Bcl-2 G101V) [µM] | IC50 (KMS-12-PE Bcl-2 WT) [µM]
Cc1c(N(C(=O)c2cc(-c3cc4c(cc3C(=O)N3Cc5ccccc5C[C@H]3C)CN(C(=O)Cc3ccc(OCCN(C)C5COC5)cc3)CC4)n(C)c2C)c2ccc(O)cc2)cc(C#N)n1C [Example 60, N-(5-cyano-1,2-dimethyl-1H-pyrrol-3-yl)-N-(4-hydroxyphenyl)-1,2-dimethyl-5-{2-[2-(4-{2-[methyl(oxetan-3-yl)amino]ethoxy}phenyl)acetyl]-7-[(3R)-3-methyl-1,2,3,4-tetrahydroisoquinoline-2-carbonyl]-1,2,3,4-tetrahydroisoquinolin-6-yl}-1H-pyrrole-3-carboxamide] | 0.05 | 0.2 | 3.5 | 0.14 | 0.21 | 0.09 | 1 | 19.2 | 0.0075 | 4.91 | 0.0367 | 
Cc1c(N(C(=O)c2cc(-c3cc4c(cc3C(=O)N3Cc5ccccc5C[C@H]3C)CN(C(=O)Cc3ccc(OCCN(C)C5CC5)nc3)CC4)n(C)c2C)c2ccc(O)cc2)cc(C#N)n1C [Example 61, N-(5-cyano-1,2-dimethyl-1H-pyrrol-3-yl)-5-{2-[2-(6-{2-[cyclopropyl(methyl)amino]ethoxy}pyridin-3-yl)acetyl]-7-[(3R)-3-methyl-1,2,3,4-tetrahydroisoquinoline-2-carbonyl]-1,2,3,4-tetrahydroisoquinolin-6-yl}-N-(4-hydroxyphenyl)-1,2-dimethyl-1H-pyrrole-3-carboxamide] | 0.04 | 0.2 | 5.0 | 0.13 | 1.02 | 0.18 | 1.5 | 35.7 | 0.0143 | 5.76 | 0.0824 | 
Cc1c(C(=O)N(c2ccc(O)cc2)c2cnc3c(cnn3C)c2)cc(-c2cc3c(cc2C(=O)N2Cc4ccccc4C[C@H]2C)CN(C(=O)Cc2ccc(OCCN4CCOCC4)cc2)CC3)n1C [Example 62, N-(4-hydroxyphenyl)-1,2-dimethyl-5-(7-{[(3R)-3-methyl-3,4-dihydro-1H-isoquinolin-2-yl]carbonyl}-2-(2-{4-[2-(morpholin-4-yl)ethoxy]phenyl}acetyl)-3,4-dihydro-1H-isoquinolin-6-yl)-N-{1-methylpyrazolo[3,4-b]pyridin-5-yl}pyrrole-3-carboxamide] | 0.06 | 0.3 | 5.5 | 0.47 | 0.38 | 0.09 | 2.4 | 38.7 | 0.0118 | 7.56 | 0.0892 | 
Cc1c(N(C(=O)c2cc(-c3cc4c(cc3C(=O)N3Cc5ccccc5C[C@H]3C)CN(C(=O)Cc3ccc(OCCN5CCOCC5)cc3)CC4)n(C)c2C)c2ccccc2)cc(C#N)n1C [Example 65, N-(5-cyano-1,2-dimethylpyrrol-3-yl)-1,2-dimethyl-5-(7-{[(3R)-3-methyl-3,4-dihydro-1H-isoquinolin-2-yl]carbonyl}-2-(2-{4-[2-(morpholin-4-yl)ethoxy]phenyl}acetyl)-3,4-dihydro-1H-isoquinolin-6-yl)-N-phenylpyrrole-3-carboxamide] | 0.08 | 0.7 | 9.4 | 0.8 | 1.12 | 0.14 | 4.1 | 52.6 |  | 15 | 0.0414 | 0.0028

— patent US20250179047A1, “5-[7-(3,4-DIHYDRO-1H-ISOQUINOLINE-2-CARBONYL)-1,2,3,4 TETRAHYDROISOQUINOLIN-6-YL]-1H-PYRROLE-3-CARBOXAMIDE DERIVATIVES, PHARMACEUTICAL COMPOSITIONS CONTAINING THEM AND THEIR USES AS PRO-APOPTOTIC AGENTS” (LES LABORATOIRES SERVIER, priority 2022, published 2025)
